Literature values as cited in patent US20050065132A1, “2-alkylidene-19-nor-vitamin D derivatives for the treatment or prevention of a secon hip fracture” (Pfizer Inc, priority 2003, published 2005).
Where two headings read alike, the source gives them in different places.

Columns and labels:
[1] = test system: intestinal calcium transport
[2] = test system: serum calcium (bone calcium mobilization); conditions: given for 7 days in a chronic mode, 130 and 260 pmol/day
[3] = 130 or 260 pmol dose, chronic 7 days

| Compound | change in intestinal calcium transport ([1]; 260 pmol/day, only dose tested) | bone calcium mobilization [2] | change in intestinal calcium transport [1, 3] |
| --- | --- | --- | --- |
| C=C1/C(=C\C=C2/CCC[C@]3(C)[C@@H]([C@H](C)CCCC(C)(C)O)CC[C@@H]23)C[C@@H](O)C[C@@H]1O [1,25-(OH)2D3, 1,25-dihydroxyvitamin D3, reference compound] | expected elevation |  |  |
| C=C1[C@H](O)CC(=C/C=C2\CCC[C@]3(C)[C@@H]([C@H](C)CCCC(C)(C)O)CC[C@@H]23)C[C@H]1O [2-Methylene-19-Nor-1,25-(OH)2D3, 1α,25-dihydroxy-2-methylene-19-nor-vitamin D3] |  | extremely strong | no intestinal calcium transport activity |
| C=C1[C@H](O)CC(=C/C=C2\CCC[C@]3(C)[C@@H]([C@@H](C)CCCC(C)(C)O)CC[C@@H]23)C[C@H]1O [2-Methylene-19-Nor-20S-1,25-(OH)2D3, (20S)-1α,25-dihydroxy-2-methylene-19-nor-vitamin D3] |  | most potent compound tested | no significant change |
